Assay results as given in ChEMBL document CHEMBL1136689, “Inhibition of telomerase by BIBR 1532 and related analogues” (Bioorg Med Chem Lett, 2003).

What was measured:
[1] = biological target: T1, Telomerase reverse transcriptase (Homo sapiens, UniProt O14746); assay: Inhibitory activity against telomerase; ND: Not detected concentrations as high as 50 uM
[2] = biological target: T1, Telomerase reverse transcriptase; assay: Inhibitory activity against telomerase; ND: not detected concentrations as high as 50 uM
[3] = biological target: T1, Telomerase reverse transcriptase; assay: Inhibitory activity against telomerase

T1 sequence (O14746 whole entry): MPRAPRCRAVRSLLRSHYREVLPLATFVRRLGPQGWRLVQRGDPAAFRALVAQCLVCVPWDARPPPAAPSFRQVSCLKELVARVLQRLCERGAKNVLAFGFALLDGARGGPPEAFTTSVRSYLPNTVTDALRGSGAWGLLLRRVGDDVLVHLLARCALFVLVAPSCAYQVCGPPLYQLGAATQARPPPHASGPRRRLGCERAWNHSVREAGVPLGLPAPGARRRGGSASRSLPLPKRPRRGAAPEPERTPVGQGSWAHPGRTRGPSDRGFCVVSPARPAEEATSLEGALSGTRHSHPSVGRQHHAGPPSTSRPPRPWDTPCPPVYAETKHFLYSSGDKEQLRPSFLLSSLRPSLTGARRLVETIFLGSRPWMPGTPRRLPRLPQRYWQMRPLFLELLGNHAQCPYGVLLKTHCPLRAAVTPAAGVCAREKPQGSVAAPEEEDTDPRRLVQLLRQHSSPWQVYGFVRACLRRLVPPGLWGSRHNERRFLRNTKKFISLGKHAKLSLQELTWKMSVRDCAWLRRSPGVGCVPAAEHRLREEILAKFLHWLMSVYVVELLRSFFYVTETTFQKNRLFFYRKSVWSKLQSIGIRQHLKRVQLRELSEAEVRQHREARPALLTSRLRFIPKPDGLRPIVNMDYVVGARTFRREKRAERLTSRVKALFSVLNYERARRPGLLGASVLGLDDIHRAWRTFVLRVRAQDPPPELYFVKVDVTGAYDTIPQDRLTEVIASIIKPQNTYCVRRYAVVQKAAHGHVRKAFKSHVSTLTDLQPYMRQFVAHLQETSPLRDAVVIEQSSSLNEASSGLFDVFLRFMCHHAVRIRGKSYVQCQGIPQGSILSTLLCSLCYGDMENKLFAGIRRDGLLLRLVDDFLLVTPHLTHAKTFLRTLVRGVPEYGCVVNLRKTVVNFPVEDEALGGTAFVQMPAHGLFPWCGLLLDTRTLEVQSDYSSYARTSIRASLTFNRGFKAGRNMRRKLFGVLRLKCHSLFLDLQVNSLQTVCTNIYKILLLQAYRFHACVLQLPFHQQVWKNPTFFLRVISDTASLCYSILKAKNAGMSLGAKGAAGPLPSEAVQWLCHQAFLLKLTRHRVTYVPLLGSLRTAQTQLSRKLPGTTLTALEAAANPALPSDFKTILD

SMILES | IC50 [1] | also measured
C/C(=C(/Cl)C(=O)Nc1ccccc1C(=O)O)c1ccc2ccccc2c1 | Inhibition not detected | 
CC(/C=C(\Cl)C(=O)Nc1ccccc1C(=O)O)c1ccccc1 (configuration not stated) |  | IC50 [2]: Inhibition not detected
C/C(=C\C(=O)Nc1ccccc1C(=O)O)c1ccc2ccccc2c1 |  | IC50 [3]: 5 µM
COc1cc(CCC(=O)Nc2ccccc2C(=O)O)ccc1O | Inhibition not detected | 
C/C(=C/C(=O)Nc1ccccc1C(=O)O)c1ccc2ccccc2c1 |  | IC50 [3]: 5 µM

Second part, led by results:

IC50 [1] | SMILES | also measured
Inhibition not detected | COc1cc(/C=C(\Cl)C(=O)Nc2ccccc2C(=O)O)ccc1OCc1ccccc1 | 
Inhibition not detected | CC(CC(=O)Nc1ccccc1C(=O)O)c1ccc2ccccc2c1 (configuration not stated) | 
